Columns and labels:
BMDM = assay: Cholesterol efflux assay; format: cell-based, mouse; conditions: AMG-18 5 μM 1 hour pre-treatment; APOA1 25 μg/ml or HDL 50 μg/ml acceptors, 6 hours
Method: FIGS. 2A-2M depict that FMRP deficiency enhances RCT while reducing foam cell formation in vivo. (Data are mean±SEM. Unpaired t-test with Welch's correction. * P≤0.05, ** P≤0.01, *** P≤0.001.) • 2A. Fmr1^+/+ and Fmr1^−/− mice were injected with AAV_PCSK9 and fed with 16 weeks of WD. Residential PM were stained with Oil Red O (ORO) and imaged (n=7; Scale bar=50 μm). • 2B. Apoe-/mice were fed with WD (12 weeks) and injected with vehicle (DMSO) or AMG-18 (30 mg/kg/day) in the last 4 weeks of WD. Residential PM were stained with ORO and imaged (n=5; Scale bar=50 μm). • 2C-2E. […] Macrophages were pre-loaded with fluorescently labeled cholesterol (16 hours) followed by incubation in efflux medium including APOA1 (25 μg/ml) or HDL (50 μg/ml) as acceptors for 6 hours. % Efflux was calculated as cholesterol signal in medium/cholesterol signal in medium and cell: Cholesterol efflux in (2F) Fmr1+/+ and Fmr1^−/− BMDM (n=4) and in (2G) BMDM that were pre-treated either with DMSO or AMG-18 (5 μM; 1 hour) (n=4). • 2H-2K. […] Protein lysates from macrophages used in FIG. 2C were analyzed by western blotting using specific antibodies for FMRP and β-Actin. • 2M. […]

macrophages = assay: Cholesterol uptake in macrophages (fluorescently labeled cholesterol); format: cell-based, mouse; conditions: AMG-18 10 μM 1 hour pre-treatment, labeled cholesterol 4 hours

For `Cc1ccc2c(NS(=O)(=O)c3ccccc3Cl)cccc2c1Oc1ncccc1-c1ccnc(N[C@H]2CCCNC2)n1` [AMG-18], the cholesterol efflux (BMDM) was “enhanced” and the cholesterol uptake (macrophages) was “neither FMRP knock down nor IRE1 kinase inhibition altered”.

Reference: patent US20250134889A1, “TARGETING IRE1 KINASE AND FMRP FOR PROPHYLAXIS, MANAGEMENT AND TREATMENT OF ATHEROSCLEROSIS” (CEDARS-SINAI MEDICAL CENTER, priority 2022, published 2025)
